Assay results from patent US12239647B2, “ALS treatment using induced regulatory T (iTREG) cells” (RAPA THERAPEUTICS, LLC, priority 2018, dated 2025).

What was measured:
[1] = system: peripheral blood mononuclear cells from an ALS patient; assay: TCR repertoire profiling by RNA sequencing pre- and post-therapy with etanercept; type: in vivo, human
Text: FIGS. 23A & 23B depict the use of RNA-based T cell receptor sequencing to detect a widespread up- and down-regulation of T cell TCR specificities after therapy with the TNF-α inhibitor, etanercept. In FIG. 23, RNA was isolated from peripheral blood mononuclear cells from an ALS patient pre- and post-therapy with etanercept therapy. The RNA was subjected to TCR repertoire profiling, as previously described by Rosati E, Dowds C M, Liaskou E, Henriksen E K K, Karlsen T H, Franke A. Overview of methodologies for T-cell receptor repertoire analysis. BMC Biotechnol. 2017; 17(1): 61.
FIGS. 36A-36B depict use of RNA-based T cell receptor sequencing to detect a widespread up- and down-regulation of T cell TCR specificities after therapy with the TNF-α inhibitor, etanercept. In FIGS. 36A-36B, RNA was isolated from peripheral blood mononuclear cells from an ALS patient pre- and post-therapy with etanercept therapy. The RNA was subjected to TCR repertoire profiling, as previously described by Rosati E, Dowds C M, Liaskou E, Henriksen E K K, Karlsen T H, Franke A. Overview of methodologies for T-cell receptor repertoire analysis. BMC Biotechnol. 2017; 17(1): 61.

[2] = system: human CD4+ and CD8+ T cells; assay: Expansion of de-differentiated T cells in Th1, TREG or hybrid Th2/TREG polarization with or without pemetrexed; type: cell-based
Protocol: FIG. 13 depicts favorable expansion of de-differentiated T cells in hybrid Th2/TREG polarization condition relative to Th1 polarization condition. Human CD4^+ and CD8^+ T cells were subjected to a 3-day de-differentiation procedure (“STEP 1”). […] In addition, the T cell culture in the presence of the variable polarization conditions was performed without the novel inhibitory molecule, pemetrexed (“0”) or in the presence of variable concentrations of pemetrexed, as indicated (10 nM [“10”]; 33 nM [“33”]; or 100 nM [“100”]. After a total of 10 days of culture, the n=24 cultures were harvested and live cells were enumerated and graphed above (y-axis indicated number of cells×10^6; input cell number was 1.5×10^6 cells).

[3] = system: human CD4+ and CD8+ T cells; assay: Flow cytometry of FOXP3, Tbet and GATA3 in extended hybrid Th2/TREG culture with temsirolimus or pemetrexed; type: cell-based; details: hybrid polarization condition with pemetrexed 10 nM
Text: To evaluate these transcription factors in our manufacturing method, T cells were first subjected to the step 1 de-differentiation procedure and then re-differentiated in the hybrid TREG-Th2 culture condition (IL-2, TGF-β, and IL-4). In addition, we compared the effects of pemetrexed with a classical mTOR inhibitor.
The iTREG phenotype is considered to be unstable; as such, we evaluated the stability of T cells re-differentiated using the hybrid TREG-Th2 culture condition at delayed time points, including days 20 and 32 of culture. In addition, to test phenotype stability in a rigorous manner, between day 24 and day 32 of culture, T cells received a high level of co-stimulation (3:1 bead-to-T cell ratio) and were propagated in media without cytokines or pharmacologic agents.
FIGS. 19A-19D illustrate that extended culture of de-differentiated T cells in the hybrid Th2/TREG polarization condition containing pemetrexed results in the generation of CD4^+ T cells expressing FOXP3 and GATA3 transcription factors. […] At days 12, 20, and 32 of culture, T cells were harvested and subjected to surface flow cytometry (CD4 marker) and intra-cellular staining for the following transcription factors, FOXP3, Tbet, and GATA3. The data above show the percent CD4 cells out of the total cultured population (FIG. 19A); the percent of CD4 cells that expressed the TREG transcription factor FOXP3 (FIG. 19B); the percent of CD4 cells that expressed the Th1 transcription factor Tbet (FIG. 19C); and the percent of CD4 cells that expressed the Th2 transcription factor GATA3 (FIG. 19D).
FIGS. 20A-20D illustrate that extended culture of de-differentiated T cells in the hybrid Th2/TREG polarization condition containing pemetrexed results in the generation of CD8^+ T cells expressing FOXP3 and GATA3 transcription factors. […] At days 12, 20, and 32 of culture, T cells were harvested and subjected to surface flow cytometry (CD8 marker) and intra-cellular staining for the following transcription factors, FOXP3, Tbet, and GATA3. […]

[4] = system: human CD4+ and CD8+ T cells; assay: Cytokine secretion (Luminex) in extended hybrid Th2/TREG culture with temsirolimus or pemetrexed; type: cell-based
Text: (§1) FIGS. 21A-21D illustrates that extended culture of de-differentiated T cells in the hybrid Th2/TREG polarization condition results in the generation of T cells expressing with a predominant Th2 cytokine phenotype: IL-4, IL-5, and IL-13 secretion. […] At days 12, 20, and 32 of culture, the T cells were harvested, washed, and re-stimulated with 3/28 beads (3:1 ratio) for 24 hr; the resultant supernatant was harvested and tested for cytokine content by Luminex multi-analyte method. All results shown are expressed as cytokine level in pg per ml per 1×10^6 cells/ml/24 hr. The Th2 cytokine IL-10 was also evaluated: all values were less than 20 pg/ml per 1×10^6 cells/ml/24 hr.
as §1, with “22A-22D illustrate” for “21A-21D illustrates”, “IL-2, IFN-γ,” for “IL-4, IL-5,”, “GM-CSF” for “IL-13”, “inflammatory cytokines IL-17 and TNF-α were” for “Th2 cytokine IL-10 was”

[5] = ALS patient, pre- versus post-therapy
[6] = several clones, pre- versus post-treatment
[7] = hybrid TREG-Th2 condition, temsirolimus 1.0 μM or pemetrexed 10 nM

Compound | TCR specificities down-regulated in the post-therapy sample [1, 5] | TCR specificities up-regulated in the post-therapy sample [1, 5] | T cell clonal contraction [1, 6] | T cell clonal expansion [1, 6] | post-treatment frequencies of contracted T cell clones ([1]; several clones, 259 to 598 pre-etanercept) | concentration for optimal T cell re-differentiation (numerical perspective) ([2]; TREG-Th2 hybrid polarization (IL-2, TGF-β, IL-4)) [nM] | T cell number after re-differentiation in TREG-Th2 polarization condition ([2]; most stringent de-differentiation (temsirolimus, vitamin D, anti-IL-2 receptor antibody), pemetrexed 10 nM in step 2, 10 days) | T cell number after re-differentiation in pure TREG polarizing condition (IL-2 plus TGF-β without IL-4) ([2]; most stringent de-differentiation, in the presence of pemetrexed (cultures #20 and #21)) | T cell yield after re-differentiation in Th1-type polarization ([2]; pemetrexed not added or 10 to 100 nM, input 1.5×10^6 cells) | percent of CD8 cells that expressed Tbet [3] | percent of CD4 cells that expressed Tbet ([3]; days 12, 20, 32) | percent of CD4 cells that expressed GATA3 ([3]; end of culture) | GM-CSF secretion ([4]; hybrid TREG-Th2 condition supplemented with pemetrexed 10 nM) | IL-5 secretion [4, 7] | IL-13 secretion [4, 7]
etanercept | approximately 25% | approximately 25% | more than 4 log | more than 4 log | 0.01 | – | – | – | – | – | – | – | – | – | –
Nc1nc2[nH]cc(CCc3ccc(C(=O)N[C@@H](CCC(=O)O)C(=O)O)cc3)c2c(=O)[nH]1 [pemetrexed] | – | – | – | – | – | 10 | sufficient T cells | unsuccessful | greatly limited ability to re-differentiate | lowest levels | most consistently reduced TBET values | highest end-of-culture Th2-associated GATA3 expression | higher degree | fully preserved | fully preserved
